Test results from ChEMBL document CHEMBL2095176, “GSK Tuberculosis Screening Data”.
Converted amounts (≈) assume the structure as drawn.

How the values were obtained:
physchem [1] = details: phosphate buffered saline, pH 7.4
physchem [2] = details: octanol/water
Description: GSK_TB: GSK in-house hydrophobicity assay (logP)

[3] = system: Mycobacterium tuberculosis H37Rv; experiment: microbe, parasite or virus in culture
Description: GSK_TB: Intracellular minimum inhibitory concentration (MIC) H37Rv assay

physchem [4] = details: buffer, pH 7.4
Description: GSK_TB: GSK in-house hydrophobicity assay at pH7.4 (logD)

| SMILES | solubility kinetic (physchem [1]) [µM] | logP (physchem [2]) | MIC90 [3] [µM] | logD (physchem [4]) |
| --- | --- | --- | --- | --- |
| O=C(NNC(=O)c1ccc([N+](=O)[O-])o1)c1ccc2ccccc2c1 | 1 (≈ 0.325 µg/mL) | 3.48 | 8.32 (≈ 2.71 µg/mL) | 3.02 |
| CC(=O)N1CCc2cc3nc(C)cc(C)c3cc21 | 309 (≈ 74.3 µg/mL) | 2.65 | 3.7 (≈ 0.889 µg/mL) | 2.64 |
| Cc1nc2ccccn2c1C(=O)NCc1ccc2c(c1)OCO2 | 357 (≈ 110 µg/mL) | 3.02 | 2.9 (≈ 0.897 µg/mL) | 3.02 |
| FC(F)(F)c1nnc2ccc(Cl)nn12 | 344 (≈ 76.6 µg/mL) | 3.1 | 9.1 (≈ 2.03 µg/mL) | 3.11 |
| CNc1nc(SC)nc2ccsc12 | 439 (≈ 92.8 µg/mL) | 3.3 | 3.4 (≈ 0.718 µg/mL) | 3.3 |
| Brc1cncc(-c2cc(NCCCn3ccnc3)nc(-c3ccccc3)n2)c1 | 15 (≈ 6.53 µg/mL) | 5.83 | 5.19 (≈ 2.26 µg/mL) | 5.53 |
| Cl.O=C(c1ccco1)N(CCCn1ccnc1)c1nc2c(Cl)cccc2s1 | 21 | 5.63 | 8.41 | 5.25 |
| Clc1ccc(CCNc2cc(-c3ccccc3)nc3ncnn23)cc1 | 1 (≈ 0.35 µg/mL) | 5.73 | 1.5 (≈ 0.525 µg/mL) | 5.53 |
| Cc1n[nH]c(C)c1S(=O)(=O)NCc1nc(NCCCc2ccccc2)c2ccccc2n1 | 240 (≈ 108 µg/mL) | 4.52 | 1.8 (≈ 0.811 µg/mL) | 4.32 |
| COc1cc(C(F)(F)F)nc2ccc(C)c(N)c12 | 446 (≈ 114 µg/mL) | 5.13 | 5.3 (≈ 1.36 µg/mL) | 4.97 |
| O=C(c1cc2c(s1)CCC2)N1CCN(Cc2ccc3c(c2)OCO3)CC1 | 117 (≈ 43.3 µg/mL) | 6.34 | 5.3 (≈ 1.96 µg/mL) | 6.09 |
| CNc1nc(SCC(=O)N(C)Cc2ccc(Cl)s2)nc2ccccc12 | 56 (≈ 22 µg/mL) | 5.23 | 5.62 (≈ 2.21 µg/mL) | 5.07 |
| O=C(NCc1ccc(Oc2ccccc2)cc1)c1c(C(F)(F)F)nc2ccccn12 | 1 (≈ 0.411 µg/mL) | 6.58 | 0.2 (≈ 0.0823 µg/mL) | 6.28 |
| Cc1nc2ccccn2c1C(=O)NCc1ccc(Cl)cc1 | 405 (≈ 121 µg/mL) | 4.12 | 0.4 (≈ 0.12 µg/mL) | 4.04 |
| CC(C)(C)C(=O)CC1(O)Oc2ccccc2N=C1C=C(O)C(C)(C)C (stereo not given) | 75 (≈ 25.9 µg/mL) | 7.84 | 4.03 (≈ 1.39 µg/mL) | 7.49 |
| O=C(C1CCN(c2nnc(-n3cccc3)s2)CC1)N1CCC(Cc2ccccc2)CC1 | 1 (≈ 0.436 µg/mL) | 6.78 | 4.2 (≈ 1.83 µg/mL) | 6.37 |
| COc1cc(Nc2ccccc2)ccc1NS(=O)(=O)c1c(C)noc1C | 53 (≈ 19.8 µg/mL) | 5.78 | 6.1 (≈ 2.28 µg/mL) | 5.53 |
| Cc1nc2ccccn2c1C(=O)Nc1ccc(C(C)(C)C)cc1 | 85 (≈ 26.1 µg/mL) | 6.03 | 6.2 (≈ 1.91 µg/mL) | 5.81 |
| O=C(C=Cc1cccs1)N1CCN(Cc2ccc(Br)s2)CC1 | 152 (≈ 60.4 µg/mL) | 6.74 | 1.9 (≈ 0.755 µg/mL) | 6.47 |
| CN1CCN(c2ccc(C(F)(F)F)cc2NC(=O)c2ccccn2)CC1 | 182 (≈ 66.3 µg/mL) | 6.84 | 1.91 (≈ 0.694 µg/mL) | 6.19 |

| SMILES | solubility kinetic (physchem [1]) [µM] | logP (physchem [2]) | MIC90 [3] [µM] | logD (physchem [4]) |
| --- | --- | --- | --- | --- |
| Cc1ccc2nc(C(F)(F)F)c(C(=O)NCc3cccc(OC(C)C)c3)n2c1 | 1 (≈ 0.391 µg/mL) | 6.43 | 2.1 (≈ 0.822 µg/mL) | 6.19 |
| N#Cc1ccc2c(c1)CCN(CCCSc1ccnc3cc(C(F)(F)F)ccc13)CC2 | 1 (≈ 0.442 µg/mL) | 8.64 | 2.4 (≈ 1.06 µg/mL) | 7.96 |
| CCOc1ccc(OCc2ccc(C(=O)NNC(=O)c3ccc([N+](=O)[O-])o3)cc2)cc1 | 1 (≈ 0.425 µg/mL) | 4.88 | 2.5 (≈ 1.06 µg/mL) | 4.32 |
| O=C(NCc1ccccc1F)N1CCN(Cc2ccc(Br)s2)CC1 | 60 (≈ 24.7 µg/mL) | 5.93 | 6.6 (≈ 2.72 µg/mL) | 5.72 |
| O=C(N[C@@H](Cc1ccccc1)C(=O)Nc1ccccc1N1CCOCC1)c1cccs1 | 52 (≈ 22.6 µg/mL) | 5.78 | 6.6 (≈ 2.87 µg/mL) | 5.53 |
| CSc1ccc(-c2nnc(NC(=O)c3ccc(Cl)s3)o2)cc1 | 67 (≈ 23.6 µg/mL) | 6.07 | 6.61 (≈ 2.32 µg/mL) | 3.76 |
| OC1(c2ccccc2)Oc2ccccc2N=C1c1ccccc1 (stereo not given) | 263 (≈ 79.3 µg/mL) | 6.19 | 6.68 (≈ 2.01 µg/mL) | 6.09 |
| COc1ccc(CC(=O)Nc2c(-c3cccs3)nc3cc(C)ccn23)cc1 | 87 (≈ 32.8 µg/mL) | 4.02 | 6.8 (≈ 2.57 µg/mL) | 3.95 |
| Cc1ccc2nc(C(F)(F)F)c(C(=O)NCc3cc(Cl)cc(Cl)c3)n2c1 | 1 (≈ 0.402 µg/mL) | 7.04 | 0.9 (≈ 0.362 µg/mL) | 6.65 |
| Cc1ccc2nc(C(F)(F)F)c(C(=O)NCc3cccs3)n2c1 | 17 (≈ 5.77 µg/mL) | 4.98 | 0.9 (≈ 0.305 µg/mL) | 4.79 |
| CCOc1ccc(-c2nc(CNCCc3ccc(F)cc3)cs2)cc1.O=C(O)C(=O)O | 159 | 7.45 | 1.07 | 6.09 |
| Cc1ccc2nc(C(F)(F)F)c(C(=O)NCc3ccc4c(c3)OCO4)n2c1 | 22 (≈ 8.3 µg/mL) | 4.98 | 1.1 (≈ 0.415 µg/mL) | 4.79 |
| COc1ccc2nc(C)cc(OCC(=O)NCc3ccccc3)c2c1 | 96 (≈ 32.3 µg/mL) | 3.92 | 1.1 (≈ 0.37 µg/mL) | 3.86 |
| CCc1c(C)nc(-n2nc(C)cc2NC(=O)c2ccccc2SC)[nH]c1=O | 1 (≈ 0.383 µg/mL) | 6.48 | 1.15 (≈ 0.44 µg/mL) | 5.63 |
| Cc1ccc2nc(C)c(C(=O)NCc3ccco3)n2c1 | 277 (≈ 74.6 µg/mL) | 3.02 | 1.3 (≈ 0.35 µg/mL) | 3.02 |
| CCN(Cc1ccc2c(c1)OCO2)C(=O)CSc1nc(NC)c2ccccc2n1 | 74 (≈ 30.4 µg/mL) | 4.83 | 2.8 (≈ 1.15 µg/mL) | 4.69 |
| CCc1ccc(Nc2nnc(SCc3cc(C)on3)s2)cc1 | 1 (≈ 0.332 µg/mL) | 5.98 | 2.8 (≈ 0.931 µg/mL) | 5.72 |
| CN1CCN(c2cc(-c3ccc(F)cc3)nc(-c3ccncc3)n2)CC1 | 44 (≈ 15.4 µg/mL) | 5.73 | 7.41 (≈ 2.59 µg/mL) | 5.07 |
| COc1ccc(-c2ccc(Nc3cccc(S(=O)(=O)CCNCCc4cccs4)c3)nc2)cn1 | 1 (≈ 0.495 µg/mL) | 5.83 | 7.59 (≈ 3.75 µg/mL) | 5.63 |
| Cc1ccc2nc(Cl)c(CNCc3cccs3)cc2c1 | 44 (≈ 13.3 µg/mL) | 7.23 | 7.59 (≈ 2.3 µg/mL) | 6.84 |

| SMILES | solubility kinetic (physchem [1]) [µM] | logP (physchem [2]) | MIC90 [3] [µM] | logD (physchem [4]) |
| --- | --- | --- | --- | --- |
| Cc1ccc2nc(C)c(C(=O)NCC(C)C)n2c1 | 287 (≈ 70.4 µg/mL) | 3.41 | 7.67 (≈ 1.88 µg/mL) | 3.39 |
| Cc1ccc(SCCNC(=O)c2c(-c3ccccc3)noc2C)cc1 | 50 (≈ 17.6 µg/mL) | 6.68 | 7.76 (≈ 2.74 µg/mL) | 6.37 |
| O=C(Nc1nc(-c2ccccn2)cs1)c1cncn1-c1ccccc1 | 118 (≈ 41 µg/mL) | 3.38 | 7.94 (≈ 2.76 µg/mL) | 3.39 |
| COc1ccc(-c2cc(NC(=O)c3ccc(F)cc3Cl)ccc2OC)cc1 | 1 (≈ 0.386 µg/mL) | 6.48 | 8.13 (≈ 3.14 µg/mL) | 6.28 |
| O=C(NCc1cc(Cl)cc(Cl)c1)c1c(C(F)(F)F)nc2ccccn12 | 1 (≈ 0.388 µg/mL) | 6.48 | 3.1 (≈ 1.2 µg/mL) | 6.09 |
| C=CCNc1nc(SC)nc2ccccc12 | 279 (≈ 64.5 µg/mL) | 5.13 | 3.2 (≈ 0.74 µg/mL) | 4.97 |
| O=C(NCc1ccc2c(c1)OCO2)c1c(C(F)(F)F)nc2ccccn12 | 115 (≈ 41.8 µg/mL) | 4.38 | 3.3 (≈ 1.2 µg/mL) | 4.23 |
| Cn1ccnc1CNCCS(=O)(=O)c1cccc(Nc2ccc(-c3cccc(F)c3)cn2)c1 | 64 (≈ 29.8 µg/mL) | 4.62 | 4.68 (≈ 2.18 µg/mL) | 4.41 |
| Cc1ccc2nc(C(F)(F)F)c(C(=O)NCc3ccc(C)o3)n2c1 | 259 (≈ 87.4 µg/mL) | 5.18 | 3.43 (≈ 1.16 µg/mL) | 4.97 |
| c1csc(-c2nnc(Sc3ccnc(N4CCN(c5ccncc5)CC4)n3)n2CCCN2CCOCC2)c1 | 185 (≈ 102 µg/mL) | 3.12 | 3.43 (≈ 1.88 µg/mL) | 2.08 |
| CC(C)n1ncc2c(C(=O)NCC(c3cccs3)N3CCOCC3)cc(-c3ccccc3)nc21 (stereo not given) | 1 (≈ 0.476 µg/mL) | 7.54 | 4.8 (≈ 2.28 µg/mL) | 7.21 |
| CC(C)c1ccc(-c2cncc(N3CCN(c4ccncc4)CC3)n2)cc1 | 89 (≈ 32 µg/mL) | 6.74 | 8.32 (≈ 2.99 µg/mL) | 4.79 |
| O=C(CCCSc1ccccc1)NNC(=O)c1cccs1 | 559 (≈ 179 µg/mL) | 3.77 | 8.32 (≈ 2.67 µg/mL) | 3.67 |
| COc1ccc(-c2nc(-c3cccc(NC(=O)Cc4ccc(F)cc4)c3)no2)cc1OC | 102 (≈ 44.2 µg/mL) | 6.68 | 3.7 (≈ 1.6 µg/mL) | 6.37 |
| Cc1ccc2nc(C(F)(F)F)c(C(=O)NCc3ccco3)n2c1 | 159 (≈ 51.4 µg/mL) | 4.48 | 3.89 (≈ 1.26 µg/mL) | 4.32 |
| N#Cc1nc(-c2ccccc2)oc1S(=O)(=O)c1ccc(Cl)cc1 | 1 (≈ 0.345 µg/mL) | 7.48 | 8.9 (≈ 3.07 µg/mL) | 7.12 |
| CN1CCN(c2cc(-c3ccncc3)nc(-c3ccccc3)n2)CC1 | 379 (≈ 126 µg/mL) | 5.54 | 9.02 (≈ 2.99 µg/mL) | 4.88 |
| N=C(Nc1nc(-c2ccccn2)cc2ccccc12)c1cccc(Cl)c1 | 1 (≈ 0.359 µg/mL) | 8.64 | 4.5 (≈ 1.61 µg/mL) | 8.24 |
| Cc1occc1C(=O)Nc1nc(-c2ccccn2)nc2ccsc12 | 105 (≈ 35.3 µg/mL) | 4.93 | 4 (≈ 1.35 µg/mL) | 4.79 |
| Cc1ccc2[nH]c(C3CCCNC3)c(-c3ccncc3)c2c1 (stereo not given) | 267 (≈ 77.8 µg/mL) | 3.72 | 7.67 (≈ 2.24 µg/mL) | 2.18 |
